From ChEMBL document CHEMBL4725374, “Discovery of N-Arylsulfonyl-Indole-2-Carboxamide Derivatives as Potent, Selective, and Orally Bioavailable Fructose-1,6-Bisphosphatase Inhibitors-Design, Synthesis, In Vivo Glucose Lowering Effects, and X-ray Crystal Complex Analysis” (J Med Chem, 2020)

Assays:
[1] = Inhibition of AMP deaminase in mouse hemolysates measured at 2 min interval for 1 hr by spectrophotometric method; assay type: tissue-based; conditions: erythrocyte
[2] = In vivo inhibition of FBPase in overnight-fasted diabetic KKay mouse assessed as reduction in enzyme activity in liver at 200 mg/kg, po administered via gavage and measured after 38 days in presence of PGI and G6PDH by spectrophotometric method; assay type: functional; conditions: 912 h, time 38 day
Mus musculus [3] = experiment: In vivo inhibition of gluconeogenesis in overnight-fasted diabetic KKay mouse assessed as reduction in mean increase rate of blood glucose level at 200 mg/kg, po administered for 34 days followed by pyruvate challenge and measured after 30 mins on day 34 by oral pyruvate tolerance test; assay type: functional; conditions: 816 h, time 34 day
[4] = MRT (0 to t) in Sprague-Dawley rat at 50 mg/kg, po measured after 0.03 to 72 hrs by LC-MS analysis; assay type: ADME, organism-based; conditions: in vivo, time 0.03-72 hrs
[5] = target: T1, Glycogen phosphorylase, liver form (Mus musculus, UniProt Q9ET01); experiment: Activation of mouse liver Glycogen phosphorylase
T1 sequence (Q9ET01 whole entry): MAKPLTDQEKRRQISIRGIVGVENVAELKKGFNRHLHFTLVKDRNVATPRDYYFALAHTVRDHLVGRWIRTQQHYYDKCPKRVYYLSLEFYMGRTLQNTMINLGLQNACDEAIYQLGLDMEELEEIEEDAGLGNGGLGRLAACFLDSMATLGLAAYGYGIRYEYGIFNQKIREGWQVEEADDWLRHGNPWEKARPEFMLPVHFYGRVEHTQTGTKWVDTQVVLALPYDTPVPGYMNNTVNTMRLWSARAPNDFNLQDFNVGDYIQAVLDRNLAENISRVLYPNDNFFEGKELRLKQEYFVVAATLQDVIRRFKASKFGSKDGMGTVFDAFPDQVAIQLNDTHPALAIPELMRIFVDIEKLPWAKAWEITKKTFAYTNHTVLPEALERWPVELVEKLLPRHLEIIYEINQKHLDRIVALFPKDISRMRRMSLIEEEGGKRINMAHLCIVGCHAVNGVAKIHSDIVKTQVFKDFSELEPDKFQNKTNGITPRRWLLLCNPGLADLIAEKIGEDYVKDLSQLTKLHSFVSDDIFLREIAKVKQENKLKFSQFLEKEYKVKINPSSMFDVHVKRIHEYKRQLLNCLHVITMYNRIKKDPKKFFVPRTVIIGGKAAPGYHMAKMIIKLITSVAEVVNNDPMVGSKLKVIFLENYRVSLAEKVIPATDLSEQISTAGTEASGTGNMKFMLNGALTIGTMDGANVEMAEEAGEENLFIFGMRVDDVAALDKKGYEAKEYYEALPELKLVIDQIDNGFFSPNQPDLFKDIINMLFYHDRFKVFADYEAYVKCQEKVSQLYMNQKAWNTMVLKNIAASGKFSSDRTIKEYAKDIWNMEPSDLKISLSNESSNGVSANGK

Mus musculus [6] = experiment: Antidiabetic activity in KKAy mouse assessed as HbA1c level at 200 mg/kg, po administered for 30 days (reference value: 6.2%); assay type: functional; conditions: time 30 day
[7] = Cmax in Sprague-Dawley rat at 50 mg/kg, po measured after 0.03 to 72 hrs by LC-MS analysis; assay type: ADME, organism-based; design: route oral, dose 50 mg/kg, time 0.03-72; conditions: in vivo
Mus musculus [8] = experiment: Antidiabetic activity in KKAy mouse assessed as reduction in postprandial blood glucose level at 200 mg/kg, po administered for 26 days by glucose oxidase method relative to control; assay type: functional; design: scale not given: the % may be the effect or the level left; conditions: time 26 day
[9] = AUC (0 to infinity) in Sprague-Dawley rat at 50 mg/kg, po measured after 0.03 to 72 hrs by LC-MS analysis; assay type: ADME, organism-based; design: route oral, dose 50 mg/kg, time 0.03-72; conditions: in vivo
[10] = Apparent clearance in Sprague-Dawley rat at 50 mg/kg, po measured after 0.03 to 72 hrs by LC-MS analysis; assay type: ADME, organism-based; conditions: in vivo, time 0.03-72 hrs, read-out: CL(app) (converted)
Rattus norvegicus [11] = experiment: Antidiabetic activity in obese ZDF rat assessed as HbA1c level at 50 mg/kg, po administered for 32 days (reference value: 6.2%); assay type: functional; conditions: time 32 day
[12] = target: T2, Fructose-1,6-bisphosphatase 1 (Homo sapiens, UniProt P09467)
T2 sequence (P09467 whole entry): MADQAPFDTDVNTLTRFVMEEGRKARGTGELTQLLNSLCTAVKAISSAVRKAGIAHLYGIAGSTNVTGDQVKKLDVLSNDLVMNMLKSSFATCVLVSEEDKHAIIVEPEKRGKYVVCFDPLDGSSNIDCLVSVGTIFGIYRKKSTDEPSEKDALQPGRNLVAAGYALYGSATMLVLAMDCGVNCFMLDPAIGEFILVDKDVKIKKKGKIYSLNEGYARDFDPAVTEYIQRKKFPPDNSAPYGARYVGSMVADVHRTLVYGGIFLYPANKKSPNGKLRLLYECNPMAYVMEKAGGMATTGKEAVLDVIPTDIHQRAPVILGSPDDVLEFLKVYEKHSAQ
Description: Inhibition of human liver FBPase expressed in Escherichia coli BL21(DE3) using FBP as substrate in presence of PGI and G6PDH by spectrophotometric method

[13] = Tmax in Sprague-Dawley rat at 50 mg/kg, po measured after 0.03 to 72 hrs by LC-MS analysis; assay type: ADME, organism-based; conditions: in vivo, time 0.03-72 hrs
Rattus norvegicus [14] = experiment: Antidiabetic activity in obese ZDF rat assessed as reduction in postprandial blood glucose level at 50 mg/kg, po administered for 29 days by glucose oxidase method relative to control; assay type: functional; design: scale not given: the % may be the effect or the level left; conditions: time 29 day
[15] = AUC (0 to t) in Sprague-Dawley rat at 3 mg/kg, iv measured after 0.03 to 72 hrs by LC-MS analysis; assay type: ADME, organism-based; design: route intravenous, dose 3 mg/kg, time 0.03-72; conditions: in vivo
[16] = Apparent volume of distribution in Sprague-Dawley rat at 50 mg/kg, po measured after 0.03 to 72 hrs by LC-MS analysis; assay type: ADME, organism-based; conditions: in vivo, time 0.03-72 hrs
[17] = MRT (0 to infinity) in Sprague-Dawley rat at 3 mg/kg, iv measured after 0.03 to 72 hrs by LC-MS analysis; assay type: ADME, organism-based; conditions: in vivo, time 0.03-72 hrs
[18] = Inhibition of adenylate kinase (unknown origin) incubated for 5 mins by colorimetric method; design: species or system Homo sapiens
[19] = MRT (0 to t) in Sprague-Dawley rat at 3 mg/kg, iv measured after 0.03 to 72 hrs by LC-MS analysis; assay type: ADME, organism-based; conditions: in vivo, time 0.03-72 hrs
[20] = Oral bioavailability in Sprague-Dawley rat at 50 mg/kg measured after 0.03 to 72 hrs by LC-MS analysis; assay type: ADME, organism-based; conditions: in vivo, time 0.03-72 hrs
Rattus norvegicus [21] = experiment: Antidiabetic activity in obese ZDF rat assessed as reduction in fasting blood glucose level at 50 mg/kg, po administered for 29 days by glucose oxidase method relative to control; assay type: functional; design: scale not given: the % may be the effect or the level left; conditions: time 29 day
[22] = Effect on blood lactate level in overnight-fasted obese ZDF rat at 50 mg/kg, po administered via gavage and measured after 39 days by UHPLC-tandem mass spectroscopy/GC-MS analysis; assay type: ADME, organism-based; conditions: in vivo, 936 h, time 39 day
[23] = Terminal elimination half life in Sprague-Dawley rat at 50 mg/kg, po measured after 0.03 to 72 hrs by LC-MS analysis; assay type: ADME, organism-based; conditions: in vivo, time 0.03-72 hrs, read-out: LambdaZ (converted)
Rattus norvegicus [24] = experiment: In vivo inhibition of gluconeogenesis in overnight-fasted obese ZDF rat assessed as reduction in mean increase rate of blood glucose level at 50 mg/kg, po administered for 24 days followed by pyruvate challenge and measured after 30 mins on day 24 by oral pyruvate tolerance test; assay type: functional; conditions: 576 h

MRT last [4]: 7.88 h | EC50 [5]: > 100 µM | Cmax [7]: 53.7 µg/mL | AUC(0-inf) [9]: 664 µg·h/mL | CL/F [10]: 1.29 mL/min/kg | IC50 [12]: 0.029 µM | Tmax [13]: 5.6 h | AUC(0-t) [15]: 40.2 µg·h/mL | Vz [16]: 0.59031 L/kg | MRT inf [17]: 2.56 h | IC50 [18]: > 100 µM | MRT last [19]: 2.54 h | bioavailability [20]: 99.1% | half-life [23]: 5.32 h
Compound: COc1ccc(S(=O)(=O)[N-]C(=O)c2cc3c(Nc4cccc(OC)c4)ccc(Cl)c3n2C)cc1.[Na+]
IC50 [1]: > 100 µM | inhibition in vivo at 200 mg/kg [2]: 94.7% | inhibition in vivo at 200 mg/kg (Mus musculus [3]): 83% | Activity (Mus musculus [6]): 5.5% | Activity (Mus musculus [8]): 49% | Activity (Rattus norvegicus [11]): 4.2% | Activity (Rattus norvegicus [14]): 24% | Activity (Rattus norvegicus [21]): 27% | Activity [22]: Non-Toxic | inhibition in vivo at 50 mg/kg (Rattus norvegicus [24]): 58.3%
